According to US20170081368A1, “PEPTIDES AS OXYTOCIN AGONISTS” (Hoffmann-La Roche Inc., priority 2014, published 2017):
Where a SMILES comes first, the peptide text is derived from it.

Tests used:
[1] = molecular target: T1, human Oxytocin (OTR) receptor (Homo sapiens, UniProt P30559); assay: Calcium flux assay (FLIPR) in CHO cells expressing human OTR; type: cell-based; conditions: for Emax: CHO, read-out: hOT efficacy; for Emax / hOT efficacy: maximum response normalized to endogenous full agonist = 100%; for EC50: agonist mode, CHO cells, calcium flux FLIPR, read-out: hOT EC50
T1 construct: expressed in transfected cells
T1 sequence (P30559 1-389): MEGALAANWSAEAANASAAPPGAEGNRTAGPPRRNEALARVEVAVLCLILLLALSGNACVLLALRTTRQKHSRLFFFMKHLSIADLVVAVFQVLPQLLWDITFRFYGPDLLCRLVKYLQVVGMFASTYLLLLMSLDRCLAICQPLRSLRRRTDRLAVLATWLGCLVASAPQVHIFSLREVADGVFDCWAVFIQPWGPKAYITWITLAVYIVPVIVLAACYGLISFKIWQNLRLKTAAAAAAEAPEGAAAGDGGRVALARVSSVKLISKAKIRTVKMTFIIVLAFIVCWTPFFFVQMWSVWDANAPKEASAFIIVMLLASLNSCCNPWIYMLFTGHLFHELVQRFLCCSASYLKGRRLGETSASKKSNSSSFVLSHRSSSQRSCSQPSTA
Text: (§1) Chines Hamster Ovary (CHO) cells were transfected with expression plasmids encoding either the human Vla, the human Oxytocin (OTR) or the humanV2 receptor, the later in combination with the chimeric Gqs5 G protein to redirect the signal to Calcium flux. Stable cells were cloned by limiting dilution to yield monoclonal cell lines expressing either human Vla, human V2+Gqs5 or human OTR receptors and selected based on functional responses detected on a fluorometric imaging plate reader (FLIPR) detecting Calcium flux in the cell after receptor activation. The stable cell lines were grown in F-12 K Nutrient Mixture (Kaighns Modification), containing 10% foetal bovine serum (FBS), 1% penicillin-streptomycin, 1% L-glutamate, 200 ug/ml Geneticin at 37° C. in a 10% CO2 incubator at 95% humidity.
(§2) Calcium Flux Assays Using Fluorescent Imaging (Fluorometric Imaging Plate Reader, FLIPR)
(§3) On the afternoon before the assay, cells were plated at a density of 50,000 cells/well into black 96 well plates with clear bottoms to allow cell inspection and fluorescence measurements from the bottom of each well. The density of cells was sufficient to yield a confluent monolayer the next day. Hanks balanced salt solution, without phenol red, containing 20 mM HEPES (pH 7.3) and 2.5 mM probenecid (assay buffer) was prepared fresh for each experiment. Compound dilutions were made using a Beckman Biomek 2000 laboratory automation workstation, in assay buffer containing 1% DMSO. The dye-loading buffer consisted of a final concentration of 2 μM Fluo-4-AM (dissolved in DMSO and pluronic acid) in assay buffer. The existing culture media was removed from the wells and 100 μl of the dye-loading buffer was added to each well and incubated for approximately 60 min at 37° C. in a 5% CO2 incubator at 95% humidity. Once dye-loaded, the cells were washed thoroughly on an Embla cell washer with the assay buffer to remove any unincorporated dye. Exactly 100 μl assay buffer was left in each well.
(§4) Each 96 well plate containing dye-loaded cells was placed into the FLIPR machine and the laser intensity set to a suitable level to detect low basal fluorescence. To test compounds as agonists, 25 μl diluted compound was added to the plate 10 seconds into the fluorescent measurements and fluorescent response was recorded for 5 minutes. The fluorescence data was normalized to the endogenous full agonist dose-response set at 100% for the maximum response and 0% for the minimum. Each agonist concentration-response curve was constructed using a four parameter logistic equation with Microsoft Excel XLFit as follows: Y=Minimum+((Maximum−Minimum)/(1+10^(LogEC50−X)nH)), where y is the % normalized fluorescence, minimum is the minimum y, maximum is the maximum y, log EC50 is the log10 concentration which produces 50% of the maximum induced fluorescence, x is the log10 of the concentration of the agonist compound and H is the slope of the curve (the Hill Coefficient). The maximum value gives the efficacy of the agonist test compound in percentage. The concentration of agonist that produced a half-maximal response is represented by the EC50 value, the logarithm of which yielded the pEC50 value.

human V2 receptor = molecular target: T2, human V2 receptor (Homo sapiens, UniProt P30518); assay: Calcium flux assay (FLIPR) in CHO cells expressing human V2+Gqs5; type: cell-based; conditions: for Emax: CHO, maximum response normalized to endogenous full agonist = 100%, read-out: hV2 efficacy; for EC50: agonist mode, CHO cells with chimeric Gqs5, calcium flux FLIPR, read-out: hV2 EC50
T2 construct: expressed in transfected cells
T2 sequence (P30518 whole entry): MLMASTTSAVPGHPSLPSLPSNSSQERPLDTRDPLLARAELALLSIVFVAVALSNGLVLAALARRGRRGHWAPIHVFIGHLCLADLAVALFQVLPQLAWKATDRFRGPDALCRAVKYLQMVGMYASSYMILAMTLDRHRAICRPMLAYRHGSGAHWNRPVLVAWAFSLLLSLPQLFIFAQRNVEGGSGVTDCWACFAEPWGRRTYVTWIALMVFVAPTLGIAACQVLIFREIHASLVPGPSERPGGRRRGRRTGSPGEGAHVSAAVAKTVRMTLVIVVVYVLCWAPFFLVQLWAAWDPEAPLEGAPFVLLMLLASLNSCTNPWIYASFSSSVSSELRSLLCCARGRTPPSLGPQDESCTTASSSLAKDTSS
Text: as §1, §2, §3, §4

| Compound | Emax [1] [%] | EC50 [1] [nM] | hOT efficacy [1] [%] | Emax (human V2 receptor) [%] | EC50 (human V2 receptor) [nM] |
| --- | --- | --- | --- | --- | --- |
| CC[C@H](C)[C@@H]1NC(=O)[C@H](Cc2ccc(O)cc2)NC(=O)CCS(=O)(=O)CC[C@@H](C(=O)N(C)CC(=O)N[C@@H](Cc2ccc(O)cc2)C(=O)NCC(N)=O)NC(=O)[C@H](CC(N)=O)NC(=O)[C@H](CCC(N)=O)NC1=O [Example 17] (HELM PEPTIDE1{Y.I.Q.N.[O=C([C@H](CCS(=O)(=O)CCC(=O)[*:3])N[*:1])[*:2]].[Sar].Y.G.[am]}$PEPTIDE1,PEPTIDE1,1:R1-5:R3$$$V2.0) | 105 | 2.2 | – | – | – |
| CC[C@H](C)[C@@H]1NC(=O)[C@H](Cc2ccc(O)cc2)NC(=O)CCS(=O)(=O)CC[C@@H](C(=O)N(C)CC(=O)N[C@@H](CO)C(=O)NCC(N)=O)NC(=O)[C@H](CC(N)=O)NC(=O)[C@H](CCC(N)=O)NC1=O [Example 18] (HELM PEPTIDE1{Y.I.Q.N.[O=C([C@H](CCS(=O)(=O)CCC(=O)[*:3])N[*:1])[*:2]].[Sar].S.G.[am]}$PEPTIDE1,PEPTIDE1,1:R1-5:R3$$$V2.0; C-terminus assumed; bridges inferred) | 102 | – | – | – | – |
| CC[C@H](C)[C@@H]1NC(=O)[C@H](Cc2ccc(O)cc2)NC(=O)CCS(=O)(=O)CC[C@@H](C(=O)N(C)CC(=O)N[C@@H](C)C(=O)NCC(N)=O)NC(=O)[C@H](CC(N)=O)NC(=O)[C@H](CCC(N)=O)NC1=O [Example 19] (HELM PEPTIDE1{Y.I.Q.N.[O=C([C@H](CCS(=O)(=O)CCC(=O)[*:3])N[*:1])[*:2]].[Sar].A.G.[am]}$PEPTIDE1,PEPTIDE1,1:R1-5:R3$$$V2.0) | 110 | 1.4 | – | – | – |
| CC[C@H](C)[C@@H]1NC(=O)[C@H](Cc2ccc(O)cc2)NC(=O)CCS(=O)(=O)CC[C@@H](C(=O)N(C)CC(=O)N[C@@H](CN)C(=O)NCC(N)=O)NC(=O)[C@H](CC(N)=O)NC(=O)[C@H](CCC(N)=O)NC1=O [Example 20] (HELM PEPTIDE1{Y.I.Q.N.[O=C([C@H](CCS(=O)(=O)CCC(=O)[*:3])N[*:1])[*:2]].[Sar].[NC[C@H](N[*:1])C(=O)[*:2]].G.[am]}$PEPTIDE1,PEPTIDE1,1:R1-5:R3$$$V2.0) | 113 | 12.9 | – | – | – |
| CC[C@H](C)[C@@H]1NC(=O)[C@H](Cc2ccc(O)cc2)NC(=O)CCS(=O)(=O)CC[C@@H](C(=O)N(C)CC(=O)N[C@H](C(=O)NCC(N)=O)C2CCCCC2)NC(=O)[C@H](CC(N)=O)NC(=O)[C@H](CCC(N)=O)NC1=O [Example 21] (HELM PEPTIDE1{Y.I.Q.N.[O=C([C@H](CCS(=O)(=O)CCC(=O)[*:3])N[*:1])[*:2]].[Sar].[O=C([C@@H](N[*:1])C1CCCCC1)[*:2]].G.[am]}$PEPTIDE1,PEPTIDE1,1:R1-5:R3$$$V2.0) | 117 | 0.4 | – | – | – |
| CC[C@H](C)[C@@H]1NC(=O)[C@H](Cc2ccc(O)cc2)NC(=O)CCS(=O)(=O)CC[C@@H](C(=O)N(C)CC(=O)N[C@@](C)(CC(C)C)C(=O)NCC(N)=O)NC(=O)[C@H](CC(N)=O)NC(=O)[C@H](CCC(N)=O)NC1=O [Example 22] (HELM PEPTIDE1{Y.I.Q.N.[O=C([C@H](CCS(=O)(=O)CCC(=O)[*:3])N[*:1])[*:2]].[Sar].[CC(C)C[C@](C)(N[*:1])C(=O)[*:2]].G.[am]}$PEPTIDE1,PEPTIDE1,1:R1-5:R3$$$V2.0) | 109 | 2.5 | – | – | – |
| CCC[C@H](NC(=O)[C@@H]1CCS(=O)(=O)CCC(=O)N[C@@H](Cc2ccc(O)cc2)C(=O)N[C@@H]([C@@H](C)CC)C(=O)N[C@@H](CCC(N)=O)C(=O)N[C@@H](CC(N)=O)C(=O)N1)C(=O)N[C@@H](CC(C)C)C(=O)NCC(N)=O [Example 23] (HELM PEPTIDE1{Y.I.Q.N.[O=C([C@H](CCS(=O)(=O)CCC(=O)[*:3])N[*:1])[*:2]].[Nva].L.G.[am]}$PEPTIDE1,PEPTIDE1,1:R1-5:R3$$$V2.0) | – | 23 | 123 | – | – |
| CCCC[C@H](NC(=O)[C@@H]1CCS(=O)(=O)CCC(=O)N[C@@H](Cc2ccc(O)cc2)C(=O)N[C@@H]([C@@H](C)CC)C(=O)N[C@@H](CCC(N)=O)C(=O)N[C@@H](CC(N)=O)C(=O)N1)C(=O)N[C@@H](CC(C)C)C(=O)NCC(N)=O [Example 24] (HELM PEPTIDE1{Y.I.Q.N.[O=C([C@H](CCS(=O)(=O)CCC(=O)[*:3])N[*:1])[*:2]].[Nle].L.G.[am]}$PEPTIDE1,PEPTIDE1,1:R1-5:R3$$$V2.0) | – | 40 | 114 | – | – |
| CC[C@H](C)[C@@H]1NC(=O)[C@H](Cc2ccc(O)cc2)NC(=O)CCS(=O)(=O)CC[C@@H](C(=O)N[C@@H](CO)C(=O)N[C@@H](CC(C)C)C(=O)NCC(N)=O)NC(=O)[C@H](CC(N)=O)NC(=O)[C@H](CCC(N)=O)NC1=O [Example 25] (HELM PEPTIDE1{Y.I.Q.N.[O=C([C@H](CCS(=O)(=O)CCC(=O)[*:3])N[*:1])[*:2]].S.L.G.[am]}$PEPTIDE1,PEPTIDE1,1:R1-5:R3$$$V2.0) | – | 16 | 137 | – | – |
| CC[C@H](C)[C@@H]1NC(=O)[C@H](Cc2ccc(O)cc2)NC(=O)CCS(=O)(=O)CC[C@@H](C(=O)N[C@@H](CCO)C(=O)N[C@@H](CC(C)C)C(=O)NCC(N)=O)NC(=O)[C@H](CC(N)=O)NC(=O)[C@H](CCC(N)=O)NC1=O [Example 26] (HELM PEPTIDE1{Y.I.Q.N.[O=C([C@H](CCS(=O)(=O)CCC(=O)[*:3])N[*:1])[*:2]].[O=C([C@H](CCO)N[*:1])[*:2]].L.G.[am]}$PEPTIDE1,PEPTIDE1,1:R1-5:R3$$$V2.0) | 140 | 7 | – | – | – |
| CC[C@H](C)[C@@H]1NC(=O)[C@H](Cc2ccc(O)cc2)NC(=O)CCS(=O)(=O)CC[C@@H](C(=O)N(CC(=O)N[C@H](C(=O)NCC(N)=O)C(C)C)C2CC2)NC(=O)[C@H](CC(N)=O)NC(=O)[C@H](CCC(N)=O)NC1=O [Example 29] (HELM PEPTIDE1{Y.I.Q.N.[O=C([C@H](CCS(=O)(=O)CCC(=O)[*:3])N[*:1])[*:2]].[O=C(CN(C1CC1)[*:1])[*:2]].V.G.[am]}$PEPTIDE1,PEPTIDE1,1:R1-5:R3$$$V2.0) | 105 | 0.5 | – | 143 | 3340 |
| CC[C@H](C)[C@@H]1NC(=O)[C@H](Cc2ccc(O)cc2)NC(=O)CCS(=O)(=O)CC[C@@H](C(=O)N(CC(=O)NC(C)(C)C(=O)NCC(N)=O)C2CC2)NC(=O)[C@H](CC(N)=O)NC(=O)[C@H](CCC(N)=O)NC1=O [Example 30] (HELM PEPTIDE1{Y.I.Q.N.[O=C([C@H](CCS(=O)(=O)CCC(=O)[*:3])N[*:1])[*:2]].[O=C(CN(C1CC1)[*:1])[*:2]].[Aib].G.[am]}$PEPTIDE1,PEPTIDE1,1:R1-5:R3$$$V2.0) | – | 1 | 97 | 131 | 6340 |
| CC[C@H](C)[C@H](NC(=O)CN(C(=O)[C@@H]1CCS(=O)(=O)CCC(=O)N[C@@H](Cc2ccc(O)cc2)C(=O)N[C@@H]([C@@H](C)CC)C(=O)N[C@@H](CCC(N)=O)C(=O)N[C@@H](CC(N)=O)C(=O)N1)C1CC1)C(=O)NCC(N)=O [Example 31] (HELM PEPTIDE1{Y.I.Q.N.[O=C([C@H](CCS(=O)(=O)CCC(=O)[*:3])N[*:1])[*:2]].[O=C(CN(C1CC1)[*:1])[*:2]].I.G.[am]}$PEPTIDE1,PEPTIDE1,1:R1-5:R3$$$V2.0) | 115 | 0.4 | – | 150 | 2940 |
